Molecular target: T1, human GLP-1R (Homo sapiens, UniProt P43220)
T1 construct: host or cells: HEK293
Assay: GLP-1R cAMP assay (Example B1a, HTRF, 30 min at room temperature)
Format: cell-based
Conditions: cAMP accumulation in HEK293 expressing human GLP-1R, no BETP, 30 min room temperature (Method B1a, compounds ID 1-609), Table 1; read-out: EC50
Procedure: Assay was carried out with HEK293 expressing human GLP-1R using HTRF assay, developed by Wuxi Apptec. The method is a competitive assay between native cAMP produced by the cells and exogenous cAMP labeled with a proprietary dye d2. The tracer binding is visualized by a mAb anti-cAMP labeled with Cryptate. The signal (i.e. energy transfer) is inversely proportional to the concentration of CAMP in either standard or experimental sample. Compounds were tested in the absence of BETP. Ten microliter of cell suspension in assay buffer (5 mM HEPES, 500 μM IBMX, 0.1% BSA) were added to each well (1,000 cells per well) in a low volume 384-well plate for the assay. Serially diluted compounds were added in 100 nL volume to duplicate wells, by Labcyte Echo. GLP-1 (7-37) was used as positive control. Assay plate was incubated for 30 minutes at room temperature. Stock of cAMP Detection Solution was prepared by mixing 38 parts of cAMP lysis buffer, 1 part of cAMP-D2, 1 part of anti-cAMP cryptate reagent (Cisbio #62AM4PEJ). Ten microliter of the cAMP Detection Solution was added to each well, and the assay plate was incubated for 1 hour at room temperature in the dark. Plates were read on Envision plate reader. The data were analyzed by ScreenUltra in Dotmatics, with % activation expressed using following formula: (Well data−negative control)/(postive control−negative control)*100. Dose response curves were plotted and EC50 values calculated by non-linear regression using 4-parameter fit.

T1 sequence (P43220 24-463): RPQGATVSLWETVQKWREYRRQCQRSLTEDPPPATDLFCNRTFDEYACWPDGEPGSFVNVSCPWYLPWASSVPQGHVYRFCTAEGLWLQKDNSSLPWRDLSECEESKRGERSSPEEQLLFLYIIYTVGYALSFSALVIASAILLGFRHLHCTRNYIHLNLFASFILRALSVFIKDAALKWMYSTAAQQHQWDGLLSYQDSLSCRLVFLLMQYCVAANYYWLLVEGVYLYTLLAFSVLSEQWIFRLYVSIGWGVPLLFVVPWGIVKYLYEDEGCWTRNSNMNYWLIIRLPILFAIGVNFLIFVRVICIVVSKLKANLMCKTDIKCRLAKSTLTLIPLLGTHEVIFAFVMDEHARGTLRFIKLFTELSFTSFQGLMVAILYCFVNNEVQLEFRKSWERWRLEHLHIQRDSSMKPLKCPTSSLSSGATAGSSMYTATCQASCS

Structure (SMILES)	EC50 [nM]
Cc1cc(-n2nc3c(c2-n2ccn(-c4ccc5c(cnn5C)c4Cl)c2=O)[C@@H]2COC[C@H](C3)N2C(=O)c2cc3cc(C4CCOC5(CC5)C4)ccc3n2[C@@]2(c3noc(=O)[nH]3)C[C@@H]2C)cc(C)c1F (stereo partly drawn) [Compound 230, 3-[(1S,2S)-1-[2-[(1R,8S)-3-[3-(4-chloro-1-methyl-indazol-5-yl)-2-oxo-imidazol-1-yl]-4-(4-fluoro-3,5-dimethyl-phenyl)-10-oxa-4,5,12-triazatricyclo[6.3.1.02,6]dodeca-2,5-diene-12-carbonyl]-5-(4-oxaspiro[2.5]octan-7-yl)indol-1-yl]-2-methyl-cyclopropyl]-4H-1,2,4-oxadiazol-5-one]	389
Cc1cc(-n2nc3c(c2-n2ccn(-c4ccc5c(cnn5C)c4F)c2=O)C2COCC(C3)N2C(=O)c2cc3cc([C@H]4CCOC(C)(C)C4)ccc3n2[C@@]2(c3noc(=O)[nH]3)C[C@@H]2C)cc(C)c1F (stereo partly drawn) [Compound 116, 3-((1S,2S)-1-(5-((S)-2,2-dimethyltetrahydro-2H-pyran-4-yl)-2-(3-(3-(4-fluoro-1-methyl-1H-indazol-5-yl)-2-oxo-2,3-dihydro-1H-imidazol-1-yl)-2-(4-fluoro-3,5-dimethylphenyl)-2,4,5,7,8,9-hexahydro-4,8-epiminooxocino [5,4-c]pyrazole-10-carbonyl)-1H-indol-1-yl)-2-methylcyclopropyl)-1,2,4-oxadiazol-5(4H)-one]	174
Cc1cc(-n2nc3c(c2-n2ccn(-c4ccc5cnncc5c4F)c2=O)CN(C(=O)c2cc4cc([C@H]5CCOC(C)(C)C5)ccc4n2[C@@]2(c4noc(=O)[nH]4)C[C@@H]2C)CCC3)cc(C)c1F [Compound 521, 3-[(1S,2S)-1-[5-[(4S)-2,2-dimethyltetrahydropyran-4-yl]-2-[2-(4-fluoro-3,5-dimethyl-phenyl)-3-[3-(5-fluorophthalazin-6-yl)-2-oxo-imidazol-1-yl]-4,6,7,8-tetrahydropyrazolo[4,3-c]azepine-5-carbonyl]indol-1-yl]-2-methyl-cyclopropyl]-4H-1,2,4-oxadiazol-5-one]	197
Cc1cc(-n2nc3c(c2-n2ccn(-c4ccc5nn(CCN6CCOCC6)cc5c4F)c2=O)[C@@H]2CC[C@H](C3)N2C(=O)c2cc3cc([C@H]4CCOC(C)(C)C4)ccc3n2[C@@]2(c3noc(=O)[nH]3)C[C@@H]2C)cc(C)c1F [Compound 131, 3-[(1S,2S)-1-[5-[(4S)-2,2-dimethyltetrahydropyran-4-yl]-2-[(1S,8R)-4-(4-fluoro-3,5-dimethyl-phenyl)-3-[3-[4-fluoro-2-(2-morpholinoethyl)indazol-5-yl]-2-oxo-imidazol-1-yl]-4,5,11-triazatricyclo[6.2.1.02,6]undeca-2,5-diene-11-carbonyl]indol-1-yl]-2-methyl-cyclopropyl]-4H-1,2,4-oxadiazol-5-one]	> 10000
Cc1cc(-n2nc3c(c2-n2ccn(-c4ccc(C(=O)N(C)C5CC5)c(F)c4F)c2=O)[C@@H]2CCC[C@H](C3)N2C(=O)c2cc3cc([C@H]4CCOC(C)(C)C4)ccc3n2[C@@]2(c3noc(=O)[nH]3)C[C@@H]2C)cc(C)c1F [Compound 547, N-cyclopropyl-4-[3-[(1S,8R)-12-[5-[(4S)-2,2-dimethyltetrahydropyran-4-yl]-1-[(1S,2S)-2-methyl-1-(5-oxo-4H-1,2,4-oxadiazol-3-yl)cyclopropyl]indole-2-carbonyl]-4-(4-fluoro-3,5-dimethyl-phenyl)-4,5,12-triazatricyclo[6.3.1.02,6]dodeca-2,5-dien-3-yl]-2-oxo-imidazol-1-yl]-2,3-difluoro-N-methyl-benzamide]	≥ 10000
Cc1cc(-n2nc3c(c2-n2ccn(-c4ccc5c(cnn5C)c4F)c2=O)[C@@H]2CC[C@H](C3)N2C(=O)c2cc3cc(C4CCOC5(C4)CN(C)C5)ccc3n2C2(c3noc(=O)[nH]3)CC2)cc(C)c1F (stereo partly drawn) [Compound 135, 3-[1-[2-[(1S,8R)-4-(4-fluoro-3,5-dimethyl-phenyl)-3-[3-(4-fluoro-1-methyl-indazol-5-yl)-2-oxo-imidazol-1-yl]-4,5,11-triazatricyclo[6.2.1.02,6]undeca-2,5-diene-11-carbonyl]-5-(2-methyl-5-oxa-2-azaspiro[3.5]nonan-8-yl)indol-1-yl]cyclopropyl]-4H-1,2,4-oxadiazol-5-one]	> 10000
Cc1cc(-n2nc3c(c2-n2ccn(-c4ccc5c(cnn5C)c4F)c2=O)[C@@H]2CC[C@H](C3)N2Cc2cc3cc([C@H]4CCOC(C)(C)C4)ccc3n2[C@@]2(c3noc(=O)[nH]3)C[C@@H]2C)cc(C)c1F [Compound 417, 3-((1S,2S)-1-(5-((S)-2,2-dimethyltetrahydro-2H-pyran-4-yl)-2-(((4S,7R)-3-(3-(4-fluoro-1-methyl-1H-indazol-5-yl)-2-oxo-2,3-dihydro-1H-imidazol-1-yl)-2-(4-fluoro-3,5-dimethylphenyl)-2,4,5,6,7,8-hexahydro-4,7-epiminocyclohepta [c]pyrazol-9-yl)methyl)-1H-indol-1-yl)-2-methylcyclopropyl)-1,2,4-oxadiazol-5(4H)-one]	110
Cc1cc(-n2nc3c(c2-n2ccn(-c4cccc(C(N)=O)c4F)c2=O)[C@@H]2CC[C@H](C3)N2C(=O)c2cc3cc([C@H]4CCOC(C)(C)C4)ccc3n2[C@@]2(c3noc(=O)[nH]3)C[C@@H]2C)cc(C)c1F [Compound 422, 3-[3-[(1S,8R)-11-[5-[(4S)-2,2-dimethyltetrahydropyran-4-yl]-1-[(1S,2S)-2-methyl-1-(5-oxo-4H-1,2,4-oxadiazol-3-yl)cyclopropyl]indole-2-carbonyl]-4-(4-fluoro-3,5-dimethyl-phenyl)-4,5,11-triazatricyclo[6.2.1.02,6]undeca-2,5-dien-3-yl]-2-oxo-imidazol-1-yl]-2-fluoro-benzamide]	303

Other lines, results leading:

EC50 [nM]	Structure (SMILES)
> 10000	Cc1cc(-n2nc3c(c2-n2ccn(-c4ccc5c(cnn5C)c4F)c2=O)[C@@H]2CC[C@H](C3)N2C(=O)c2cc3cc([C@H]4CCOC(C)(C)C4)ccc3n2[C@@]2(C#N)C[C@@H]2C)cc(C)c1F [Compound 137, trans-(1S,2S)-1-[5-[(4S)-2,2-dimethyltetrahydropyran-4-yl]-2-[(1S,8R)-4-(4-fluoro-3,5-dimethyl-phenyl)-3-[3-(4-fluoro-1-methyl-indazol-5-yl)-2-oxo-imidazol-1-yl]-4,5,11-triazatricyclo[6.2.1.02,6]undeca-2,5-diene-11-carbonyl]indol-1-yl]-2-methyl-cyclopropanecarbonitrile]
≥ 10000	CNC(=O)Cc1ccc(-n2ccn(-c3c4c(nn3-c3cc(C)c(F)c(C)c3)C[C@H]3CCC[C@@H]4N3C(=O)c3cc4cc([C@H]5CCOC(C)(C)C5)ccc4n3[C@@]3(c4noc(=O)[nH]4)C[C@@H]3C)c2=O)cc1 [Compound 544, 2-[4-[3-[(1S,8R)-12-[5-[(4S)-2,2-dimethyltetrahydropyran-4-yl]-1-[(1S,2S)-2-methyl-1-(5-oxo-4H-1,2,4-oxadiazol-3-yl)cyclopropyl]indole-2-carbonyl]-4-(4-luoro-3,5-dimethyl-phenyl)-f4,5,12-triazatricyclo[6.3.1.02,6]dodeca-2,5-dien-3-yl]-2-oxo-imidazol-1-yl]phenyl]-N-methyl-acetamide]
> 10000	Cc1cc(-n2nc3c(c2-c2nc(-c4ccc5c(cnn5C)c4F)c(C)[nH]2)[C@H](C)N(C(=O)c2cc4cc([C@H]5CCOC(C)(C)C5)ccc4n2[C@@]2(c4noc(=O)[nH]4)C[C@@H]2C)CC3)cc(C)c1F [Compound 24, 3-((1S,2S)-1-(5-((S)-2,2-dimethyltetrahydro-2H-pyran-4-yl)-2-((S)-3-(4-(4-fluoro-1-methyl-1H-indazol-5-yl)-5-methyl-1H-imidazol-2-yl)-2-(4-fluoro-3,5-dimethylphenyl)-4-methyl-4,5,6,7-tetrahydro-2H-pyrazolo[4,3-c]pyridine-5-carbonyl)-1H-indol-1-yl)-2-methylcyclopropyl)-1,2,4-oxadiazol-5 (4H)-one]
≥ 10000	Cc1cc(-n2nc3c(c2-n2ccn(-c4ccc5c(cnn5C)c4F)c2=O)[C@@H]2CCC[C@H](C3)N2S(=O)(=O)c2cc3cc(C4CCOCC4)ccc3n2[C@]2(c3noc(=O)[nH]3)C[C@@H]2C)cc(C)c1F [Compound 534, 3-[(1R,2S)-1-[2-[[(1S,8R)-4-(4-fluoro-3,5-dimethyl-phenyl)-3-[3-(4-fluoro-1-methyl-indazol-5-yl)-2-oxo-imidazol-1-yl]-4,5,12-triazatricyclo[6.3.1.02,6]dodeca-2,5-dien-12-yl]sulfonyl]-5-tetrahydropyran-4-yl-indol-1-yl]-2-methyl-cyclopropyl]-4H-1,2,4-oxadiazol-5-one]
593	Cc1cc(-n2nc3c(c2-n2ccn(-c4ccc5c(cnn5C)c4F)c2=O)[C@@H]2CC[C@H](C3)N2C(=O)c2cc3cc([C@H]4CCOC(C)(C)C4)ccc3n2C2(c3noc(=O)[nH]3)CC2)cc(C)c1F [Compound 114, 3-(1-(5-((S)-2,2-dimethyltetrahydro-2H-pyran-4-yl)-2-((4S,7R)-3-(3-(4-fluoro-1-methyl-1H-indazol-5-yl)-2-oxo-2,3-dihydro-1H-imidazol-1-yl)-2-(4-fluoro-3,5-dimethylphenyl)-2,4,5,6,7,8-hexahydro-4,7-epiminocyclohepta [c]pyrazole-9-carbonyl)-1H-indol-1-yl)cyclopropyl)-1,2,4-oxadiazol-5 (4H)-one]

From patent US12617783B2, “Heterocyclic GLP-1R agonists” (BIOMEA FUSION, INC., priority 2024, dated 2026)
